Structures are written as SMILES. Converted amounts (≈) assume the structure as drawn.

This note sets out measurements from ChEMBL document CHEMBL1147948, “Preparation of novel anthranilic acids as antibacterial agents: extensive evaluation of structural and physical properties on antibacterial activity and human serum albumin affinity” (Bioorg Med Chem Lett, 2007).

Test [1] relates to Staphylococcus aureus. The experiment in a line: Ratio of MIC of Staphylococcus aureus UC 9218 in presence of 10% serum to MIC of Staphylococcus aureus UC 9218 in absence of serum. In kind it is functional.
Test [2] relates to Staphylococcus aureus. Nature of the test: Antibacterial activity against Staphylococcus aureus UC 9218. The class given is functional.
The subject of test [3] is Staphylococcus aureus. Nature of the test: Antibacterial activity against Staphylococcus aureus UC 9218 in presence of 10% human serum. The class given is functional.
Another test concerns the target Albumin (Homo sapiens, UniProt P02768). Nature of the test: Binding affinity to human serum albumin.
For test [4], the system named is Staphylococcus aureus. The experiment in a line: Antibacterial activity against Staphylococcus aureus UC 9218 in presence of 5% human serum. The class given is functional.

Albumin, sequence (P02768 whole entry): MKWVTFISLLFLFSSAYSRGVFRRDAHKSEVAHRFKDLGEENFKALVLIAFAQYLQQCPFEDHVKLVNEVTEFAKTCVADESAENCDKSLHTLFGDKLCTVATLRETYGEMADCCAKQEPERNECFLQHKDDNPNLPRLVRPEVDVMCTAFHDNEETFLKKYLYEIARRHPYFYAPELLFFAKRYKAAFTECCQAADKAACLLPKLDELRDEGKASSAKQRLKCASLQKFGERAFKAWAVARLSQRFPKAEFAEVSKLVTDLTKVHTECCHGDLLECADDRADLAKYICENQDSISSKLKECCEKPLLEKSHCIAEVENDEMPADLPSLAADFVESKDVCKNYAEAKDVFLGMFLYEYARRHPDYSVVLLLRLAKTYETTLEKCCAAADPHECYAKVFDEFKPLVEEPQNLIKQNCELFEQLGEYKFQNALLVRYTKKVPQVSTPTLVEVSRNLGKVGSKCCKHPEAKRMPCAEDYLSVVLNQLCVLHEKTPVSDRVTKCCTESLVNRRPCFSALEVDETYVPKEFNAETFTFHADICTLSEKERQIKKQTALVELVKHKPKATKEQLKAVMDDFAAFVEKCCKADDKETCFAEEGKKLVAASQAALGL

Broadly, the MIC is the smallest concentration in the dilution series that meets the test's criterion for growth inhibition. Regarding `O=C(Nc1ccc(Br)cc1C(=O)O)c1ccc(SC2CCOCC2)nc1`, the Ratio with Staphylococcus aureus [1] was 32. Besides, the MIC against Staphylococcus aureus [2] was 1 µg/mL (≈ 2.29 µM); in the test on Staphylococcus aureus [3] it was 32 µg/mL.

Consider `CCCCCCSc1ccc(C(=O)Nc2ccc(C#N)cc2C(=O)O)cn1`, for which the Ratio in the test on Staphylococcus aureus [1] was found to be 64. For the same molecule, the MIC with Staphylococcus aureus [3] was found to be 8 µg/mL.

As for `N#Cc1ccc(NC(=O)c2ccc(SC3CCOCC3)nc2)c(C(=O)O)c1`, in the test on Staphylococcus aureus [1], the Ratio is 32. The MIC with Staphylococcus aureus [3] was 4 µg/mL.

As a reminder, the Kd is a measure of binding affinity in units of concentration. High values mean lower affinity, low ones higher affinity. Regarding `COCCOCCCSc1ccc(C(=O)Nc2ccc(C#N)cc2C(=O)O)cn1`, the Ratio with Staphylococcus aureus [1] was found to be 4. Besides, the MIC came out at 1 µg/mL (≈ 2.41 µM) against Staphylococcus aureus [2] and 4 µg/mL in the test with Staphylococcus aureus [3]. Also, binding at Albumin was put at a Kd of 0.7 µM.

`CC(C)(C)c1ccc(-c2cncc(C(=O)Nc3ccc(C#N)cc3C(=O)O)c2)cc1`: the MIC in the test on Staphylococcus aureus [4] and in the test with Staphylococcus aureus [3] was > 128 µg/mL throughout.

As for `CSc1ccc(C(=O)Nc2ccc(C#N)cc2C(=O)O)cn1`, in the test on Staphylococcus aureus [1], the Ratio was determined as 8. For the same molecule, the MIC against Staphylococcus aureus [2] is 32 µg/mL (≈ 102 µM); in the test with Staphylococcus aureus [3], > 128 µg/mL.

As for `CC(C)CSc1ccc(C(=O)Nc2ccc(C#N)cc2C(=O)O)cn1`, the Ratio in the test with Staphylococcus aureus [1] was 16. In addition, the MIC in the test with Staphylococcus aureus [2] amounted to 0.5 µg/mL (≈ 1.41 µM); with Staphylococcus aureus [3], 8 µg/mL.

In the case of `CCCC(C)Sc1ccc(C(=O)Nc2ccc(C#N)cc2C(=O)O)cn1` (stereo not given), the Ratio in the test with Staphylococcus aureus [1] worked out at 128. The MIC in the test with Staphylococcus aureus [3] amounted to 16 µg/mL.

For `CC(C)Sc1ccc(C(=O)Nc2ccc(Br)cc2C(=O)O)cn1`, the Ratio in the test on Staphylococcus aureus [1] came out at 32. Also, the MIC against Staphylococcus aureus [2] was determined as 1 µg/mL (≈ 2.53 µM); in the test on Staphylococcus aureus [3], 32 µg/mL.

On to `CCCCC(C)Sc1ccc(C(=O)Nc2ccc(C#N)cc2C(=O)O)cn1` (stereo not given), for which the Ratio with Staphylococcus aureus [1] amounted to 128. In the test with Staphylococcus aureus [3], the MIC came out at 16 µg/mL.

Consider `N#Cc1ccc(NC(=O)c2ccc(SC3CCCC3)nc2)c(C(=O)O)c1`, for which the Ratio in the test with Staphylococcus aureus [1] came out at 32. Also, the MIC is 0.5 µg/mL (≈ 1.36 µM) against Staphylococcus aureus [2] and 16 µg/mL in the test with Staphylococcus aureus [3].

Turning to `O=C(Nc1ccc(Br)cc1C(=O)O)c1ccc(SC2CCCCC2)nc1`, the Ratio in the test with Staphylococcus aureus [1] came to 64. Moreover, the MIC in the test with Staphylococcus aureus [2] turned out to be 1 µg/mL (≈ 2.3 µM); in the test on Staphylococcus aureus [3] it was 64 µg/mL.

As to `CCCCCSc1ccc(C(=O)Nc2ccc(C#N)cc2C(=O)O)cn1`, the Ratio with Staphylococcus aureus [1] amounted to 32. Also, the MIC with Staphylococcus aureus [3] was determined as 4 µg/mL.

Consider `CC(C)Sc1ccc(C(=O)Nc2ccc(C#N)cc2C(=O)O)cn1`, for which, in the test with Staphylococcus aureus [1], the Ratio came out at 16. Moreover, the MIC in the test with Staphylococcus aureus [2] amounted to 1 µg/mL (≈ 2.93 µM); in the test with Staphylococcus aureus [3] it was 16 µg/mL.

For `N#Cc1ccc(NC(=O)c2ccc(SC3CCCCC3)nc2)c(C(=O)O)c1`, the Ratio in the test on Staphylococcus aureus [1] worked out at 64. Further, the MIC turned out to be 0.5 µg/mL (≈ 1.31 µM) in the test on Staphylococcus aureus [2] and 32 µg/mL with Staphylococcus aureus [3].

Take `CCCCCCSc1ccc(C(=O)Nc2ccc(Cl)cc2C(=O)O)cn1`: in the test with Staphylococcus aureus [1], the Ratio was found to be 512. The MIC with Staphylococcus aureus [3] is 64 µg/mL.

Regarding `CCCCCCCCCSc1ccc(C(=O)Nc2ccc(C#N)cc2C(=O)O)cn1`, in the test on Staphylococcus aureus [1], the Ratio was > 128. Further, the MIC is 1 µg/mL (≈ 2.35 µM) in the test on Staphylococcus aureus [2] and > 128 µg/mL in the test with Staphylococcus aureus [3].

On to `CCCSc1ccc(C(=O)Nc2ccc(C#N)cc2C(=O)O)cn1`, for which the Ratio with Staphylococcus aureus [1] stood at 64. Also, the MIC against Staphylococcus aureus [2] was found to be 0.5 µg/mL (≈ 1.46 µM); with Staphylococcus aureus [3], 32 µg/mL.

For `CCC(CC)Sc1ccc(C(=O)Nc2ccc(C#N)cc2C(=O)O)cn1`, in the test with Staphylococcus aureus [1], the Ratio worked out at 32. Moreover, the MIC in the test on Staphylococcus aureus [3] was 8 µg/mL.

For `CC(C)(C)c1ccc(-c2ccc(NC(=O)c3cccc(S(=O)(=O)N4CCc5cc(Cl)ccc54)c3)c(C(=O)O)c2)cc1`, the MIC is 16 µg/mL (≈ 27.2 µM) with Staphylococcus aureus [2], > 128 µg/mL with Staphylococcus aureus [4] and > 128 µg/mL in the test on Staphylococcus aureus [3].

Consider `CCSc1ccc(C(=O)Nc2ccc(C#N)cc2C(=O)O)cn1`, for which the Ratio in the test with Staphylococcus aureus [1] was determined as 16. Also, the MIC in the test on Staphylococcus aureus [2] turned out to be 0.5 µg/mL (≈ 1.53 µM); in the test on Staphylococcus aureus [3], 8 µg/mL.

For the molecule `CCCCSc1ccc(C(=O)Nc2ccc(C#N)cc2C(=O)O)cn1`, in the test with Staphylococcus aureus [1], the Ratio stood at 64. In addition, the MIC in the test on Staphylococcus aureus [3] turned out to be 16 µg/mL.

Regarding `CCCCCCSc1ccc(C(=O)Nc2ccc(Br)cc2C(=O)O)cn1`, the Ratio in the test on Staphylococcus aureus [1] was found to be 512. In addition, the MIC with Staphylococcus aureus [3] was found to be 64 µg/mL.
